This test deals with T1, SGK2 (Homo sapiens, UniProt Q9HBY8).
T1 construct: purchased Thermo Fisher Scientific (Life Technologies) SelectScreen
Briefly: SelectScreen Z'LYTE. It is filed as biochemical. A digest of the protocol:
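SelectScreen broad panel; activity (Z'LYTE, Adapta) plus binding formats. ATP: Km app for CSF1R Z'LYTE; 10 for CAMK1 Adapta. Readout = % per kinase.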

What is called inhibition is the drop in the measured response relative to a control, in per cent.

T1 sequence (Q9HBY8 whole entry): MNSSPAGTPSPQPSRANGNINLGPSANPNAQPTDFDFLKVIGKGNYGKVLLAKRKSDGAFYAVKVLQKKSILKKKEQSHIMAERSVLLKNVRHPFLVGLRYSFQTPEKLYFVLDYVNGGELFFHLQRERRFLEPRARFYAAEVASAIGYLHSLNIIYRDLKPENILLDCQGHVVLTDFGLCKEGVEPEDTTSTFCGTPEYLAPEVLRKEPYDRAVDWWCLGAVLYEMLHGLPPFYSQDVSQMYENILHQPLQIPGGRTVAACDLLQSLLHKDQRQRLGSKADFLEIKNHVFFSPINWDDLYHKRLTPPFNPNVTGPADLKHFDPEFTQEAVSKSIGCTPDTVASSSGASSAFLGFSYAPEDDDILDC

With `CN(C(=O)CN1CCOCC1)c1ccc2sc3c(-c4cccc5c(=O)cc(N6CC7CCC(C6)O7)oc45)cccc3c2c1` [NU5455], the inhibition at 1 µM is -2.7%.

Source of the values: publication PMC6934184, “Selective DNA-PKcs inhibition extends the therapeutic index of localized radiotherapy and chemotherapy” (The Journal of Clinical Investigation, 2019).
